# Assay results taken from patent US20120016009A1, “Optimized Methods For Delivery Of DSRNA Targeting The PCSK9 Gene” (priority 2008, published 2012).
# In the oligonucleotide strings, read from the 5' end, every base follows the letter of its sugar. An asterisk marks phosphorothioate; unmarked linkages are phosphodiester. Other units and linkages are bracketed, terminal groups are in braces. A string of capitals states the bases alone. [Ab] = 3'-terminal abasic nucleotide; d = 2'-deoxy (DNA); m = 2'-O-methyl; r = 2'-OH (RNA); {P} = phosphate; f = 2'-fluoro
# Test system: PCSK9 mRNA
# Test: In vitro screening of modified dsRNAs targeted to PCSK9 (Table 2b; cell type not given)
# Type: cell-based
# Settings: 30 nM siRNA
# How it was run: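 siRNA at 30 nM (single-dose screen) was transfected with lipofectamine 2000 into cells seeded at 2.0×10^4/well. After 24 h, cells were lysed and PCSK9 mRNA measured by Quantigene, normalized to GAPDH (n=8). Values are % remaining PCSK9 mRNA relative to cells given an unrelated control siRNA.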
row,Substance,Remaining mRNA in % of controls at siRNA conc. of 30 nM [%]
1,"AD-12039: modified dsRNA, SEQ ID NO:1313/1314 (chain 1 rGmCmCmUrGrGrArGmUmUmUrAmUmUmCrGrGrArAdT*dT; chain 2 rUmUrCrCrGrArArUrArArArCrUrCrCrArGrGrCdT*dT)",29
2,"AD-12352: modified dsRNA, SEQ ID NO:1403/1404 (chain 1 fGmCfCmUfGmGfAmGfUmUfUmAfUmUfCmGfGmAfA; chain 2 rUrUrCrCrGmAmArUrAmAmArCrUrCrCrAmGmGmC*mC*mU)",11
3,"AD-12061: modified dsRNA, SEQ ID NO:1357/1358 (chain 1 GCCUGGNAGUUUAUUCGGAATT; chain 2 rUrUrCrCrGmAmArUrAmAmArCrUrCrCrAmGmGmCdT*dT; chain 1: chemistry not given here; sense strand contains an undefined nucleotide n)",7
4,"AD-12396: modified dsRNA, SEQ ID NO:1487/1488 (chain 1 GCCUGGAGUUUAUUCGGAA; chain 2 UUCCGAAUAAACUCCAGGCCU; chemical modifications, chemistry not fully specified)",59
5,"AD-12400: modified dsRNA, SEQ ID NO:1495/1496 (chain 1 rGrCrCrUrGrGrArGrUrUrUrArUrUrCrGrGrArAdT*dT; chain 2 {P}-fUfUfCfCrGrArAfUrArArAfCfUfCfCrArGrGfC*fC*fU)",12
6,"AD-12054: modified dsRNA, SEQ ID NO:1343/1344 (chain 1 rGrCrCrUrGrGrArGrUrUrUrArUrUrCrGrGrArAdT*dT; chain 2 rUrUrCrCrGrArArUrArArArCrUrCrCrArGrGrC*mC*mU)",8
7,"AD-12385: modified dsRNA, SEQ ID NO:1465/1466 (chain 1 GCCUGGNAGUUUAUUCGGAATT; chain 2 {P}-fUfUfCfCrGrArAfUrArArAfCfUfCfCrArGrGfCdT*dT; chain 1: chemistry not given here; further chemistry not fully specified)",8
8,"AD-12044: modified dsRNA, SEQ ID NO:1323/1324 (chain 1 rGrCrCrUrGrGrArGrUrUrUrArUrUrCrGrGrArAdT*dT; chain 2 rUrUmCrCrGrArArUrArArArCrUrCrCrArGrGrCdT*dT)",7
9,"AD-12381: modified dsRNA, SEQ ID NO:1457/1458 (chain 1 rGfCfCfUrGrGrArGfUfUfUrAfUfUfCrGrGrArAdT*dT; chain 2 {P}-mUfUmCfCmGfAmAfUmAfAmAfCmUfCmCfAmGfGmCdT*dT)",10
10,"AD-12339: modified dsRNA, SEQ ID NO:1377/1378 (chain 1 rGmCrCmUrGmGrAmGrUmUrUmArUmUrCmGrGmArA; chain 2 {P}-mUfUmCfCmGfAmAfUmAfAmAfCmUfCmCfAmGfGmC)",14
11,"AD-12052: modified dsRNA, SEQ ID NO:1339/1340 (chain 1 rGmCmCmUrGrGrArGmUmUmUrAmUmUmCrGrGrArArArAdTdT[Ab]; chain 2 rUrUrUrUrCrCrGrArArUrArArArCrUrCrCrArGrGrCdTdT[Ab])",81
12,"AD-12393: modified dsRNA, SEQ ID NO:1481/1482 (chain 1 rGfCfCfUrGrGrArGrGfUfUfUrAfUfUfCrGrGrArA; chain 2 rUrUrCrCrGrArAmUrArArArCrUrCmCrArGrGrCdT*dT)",17
13,"AD-12367: modified dsRNA, SEQ ID NO:1431/1432 (chain 1 GCCUGGAGUUUAUUCGGAATT; chain 2 rUrUrCrCrGmAmArUrAmAmArCrUrCrCrAmGmGmCdT*dT; chain 1: DNA at T, 2'-MOE at CU, RNA at AG, linkages o19 s1 (s phosphorothioate, o phosphodiester), methylation of C and T or U not given here)",42
